Assay results published in paper PMC11787452, “Substrate and inhibitor specificity of Plasmodium nucleoside transporters ENT1 orthologs” (The Journal of Biological Chemistry, 2024).
Values joined by “and” are separate entries in the source; they are usually repeats but may differ in a detail not shown here. Identical values can stand only once. Like-named read-outs stand apart in the source and are kept apart here.

Columns and labels:
PfENT1 [1] = molecular target: T1, PfENT1 (Plasmodium falciparum, UniProt Q8IDM6); experiment: ITC binding to PfENT1; details: for Kd: 25 °C, 25 mM MES pH 6.0, 150 mM NaCl, 0.05% DDM
T1 construct: 10xHis (N); made in house; host or cells: Sf9 insect cells (baculovirus)
Method: (§1) All the constructs were subcloned and inserted into a modified pFastBac with an N-terminal 10 × His tag. The baculovirus was generated in DH10Bac for recombinant protein expression. After 72 h of infection, Sf9 insect cells were harvested. For structural determination of the PfENT1 protein, Sf9 cells were solubilized in buffer containing 25 mM MES (pH 6.0), 150 mM NaCl, 2% (w/v) n-dodecyl-β-D-maltopyranoside (DDM), and protease inhibitor cocktail (0.8 μM aprotinin, 2 μM pepstatin, and 5 μg/ml leupeptin) at 4 °C for 2 h. After centrifugation at 18,000 rpm for 45 min at 4 °C, the detergent-soluble supernatant was collected via centrifugation at 4 °C for 60 min and incubated with Ni-NTA resin (QIAGEN) at 4 °C for 20 min. The resin was further washed with 25 mM MES pH 6.0, 150 mM NaCl, 10 mM imidazole, and 0.05% (w/v) DDM and eluted with buffer containing 25 mM MES pH 6.0, 150 mM NaCl, 300 mM imidazole, and 0.05% (w/v) DDM. The protein was further purified via size-exclusion chromatography (Superdex 200 Increase 10/300; GE Healthcare) in buffer containing 25 mM MES (pH 6.0), 150 mM NaCl, and 0.05% (w/v) DDM. The peak fractions were pooled and concentrated to 10∼50 μM for the nucleoside-binding assay. The protein purification of the bacterial nucleoside transporter NupG was performed as described in previous studies ([35]).
(§2) […] binding to ENTs was measured at 25 °C via a MicroCal PEAQ-ITC. The purified ENT protein was concentrated to 25 to 50 μM for ITC experiments. The nucleoside was diluted to 5 mM via the same buffer employed for protein purification, which consisted of 25 mM MES (pH 6.0), 150 mM NaCl, and 0.05% DDM. The inhibitor was diluted to 250 μM via the same buffer employed for protein purification, which consisted of 25 mM MES (pH 6.0), 150 mM NaCl, and 0.05% DDM. All the titrations were repeated three times.

PvENT1 = molecular target: T2, PvENT1 (Plasmodium vivax, UniProt A5K8B0); experiment: ITC binding to PvENT1; details: for Kd: 25 °C, 25 mM MES pH 6.0, 150 mM NaCl, 0.05% DDM, read-out: Kd (binding affinity for PvENT1)
T2 construct: 10xHis (N); made in house; host or cells: Sf9 insect cells (baculovirus)
T2 sequence (A5K8B0 1-416): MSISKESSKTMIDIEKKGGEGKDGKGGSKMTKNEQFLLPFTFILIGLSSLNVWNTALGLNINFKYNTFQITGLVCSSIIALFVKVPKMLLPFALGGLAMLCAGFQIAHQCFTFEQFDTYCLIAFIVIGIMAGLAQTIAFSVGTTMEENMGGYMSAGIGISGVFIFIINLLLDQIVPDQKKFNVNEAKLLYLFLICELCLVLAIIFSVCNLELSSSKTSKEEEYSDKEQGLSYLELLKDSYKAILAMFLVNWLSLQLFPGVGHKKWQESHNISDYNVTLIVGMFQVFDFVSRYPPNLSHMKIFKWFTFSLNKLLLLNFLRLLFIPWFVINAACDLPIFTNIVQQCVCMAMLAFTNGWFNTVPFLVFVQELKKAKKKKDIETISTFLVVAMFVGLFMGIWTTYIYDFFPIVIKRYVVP
Method: as §1, §2

PbENT1 = molecular target: T3, PbENT1 (Plasmodium berghei, UniProt A0A509AYF4); experiment: ITC binding to PbENT1; details: for Kd: 25 °C, 25 mM MES pH 6.0, 150 mM NaCl, 0.05% DDM, read-out: Kd (binding affinity for PbENT1)
T3 construct: 10xHis (N); made in house; host or cells: Sf9 insect cells (baculovirus)
T3 sequence (A0A509AYF4 1-412): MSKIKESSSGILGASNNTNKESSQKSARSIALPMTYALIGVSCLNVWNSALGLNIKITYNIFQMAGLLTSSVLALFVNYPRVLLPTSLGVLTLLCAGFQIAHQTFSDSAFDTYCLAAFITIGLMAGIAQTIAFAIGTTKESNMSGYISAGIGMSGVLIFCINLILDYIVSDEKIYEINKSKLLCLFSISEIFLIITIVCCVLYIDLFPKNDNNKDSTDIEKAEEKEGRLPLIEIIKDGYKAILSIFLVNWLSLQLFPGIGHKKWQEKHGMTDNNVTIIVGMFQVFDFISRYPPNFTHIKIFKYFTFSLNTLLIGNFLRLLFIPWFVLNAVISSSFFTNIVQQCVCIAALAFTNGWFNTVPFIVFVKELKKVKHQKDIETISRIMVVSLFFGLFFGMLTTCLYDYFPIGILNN
Method: as §1, §2

PfENT1M389L = molecular target: T4, PfENT1M389L (Plasmodium falciparum, UniProt Q8IDM6, M389L); experiment: ITC binding to PfENT1M389L; details: for Kd: Kd (binding to PfENT1M389L), 25 °C, pH 6.0
T4 construct: 10xHis (N); made in house; host or cells: Sf9 insect cells (baculovirus)
Method: as §1, §2

[2] = molecular target: T5, bacterial nucleoside transporter NupG (Escherichia coli, UniProt P0AFF4); experiment: ITC binding to NupG
T5 construct: made in house
T5 sequence (P0AFF4 1-418): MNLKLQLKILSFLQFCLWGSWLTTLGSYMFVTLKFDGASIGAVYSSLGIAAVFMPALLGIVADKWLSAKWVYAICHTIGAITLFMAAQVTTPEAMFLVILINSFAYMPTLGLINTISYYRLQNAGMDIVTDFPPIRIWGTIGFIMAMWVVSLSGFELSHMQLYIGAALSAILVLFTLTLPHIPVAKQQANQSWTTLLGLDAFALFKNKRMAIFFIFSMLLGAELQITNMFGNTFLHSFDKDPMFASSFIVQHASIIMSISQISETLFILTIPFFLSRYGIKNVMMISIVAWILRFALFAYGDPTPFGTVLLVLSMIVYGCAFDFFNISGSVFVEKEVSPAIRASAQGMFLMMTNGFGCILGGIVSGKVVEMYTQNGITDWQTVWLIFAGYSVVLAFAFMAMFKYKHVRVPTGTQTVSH
Method: as §1, with “The protein purification of the bacterial nucleoside transporter NupG was performed as described in previous studies ([35]).” left out
(§3) […] binding to ENTs was measured at 25 °C via a MicroCal PEAQ-ITC. […]

HepG2 cells = experiment: Cytotoxicity assay (Cell Counting Kit-8) on HepG2 cells; type: cell-based; details: 1.5 to 400 μM, 48 h, compared with GSK4, GSK4-1, GSK4-2
Method: (§4) HepG2 and 293T cells were obtained from ATCC and cultured in Dulbecco’s modified Eagle’s medium supplemented with 10% fetal bovine serum and 1% penicillin-streptomycin (Gibco). Cells were maintained at 37 °C in a humidified atmosphere containing 5% CO2. Cells were seeded at a density of 5 × 10^3 cells per well in 96-well plates and allowed to adhere for 24 h before treatment. Cells were treated with the test compounds at concentrations ranging from 1.5 to 400 μM for 48 h. Control wells were treated with an equivalent concentration of DMSO (vehicle control). Cell viability was assessed using the Cell Counting Kit-8. After 48 h of treatment, 10 μl of Cell Counting Kit-8 solution was added to each well, and the plates were incubated for 2 h at 37 °C. The absorbance was measured at 450 nm using a microplate reader. Cell viability was expressed as a percentage of the control group, and IC50 values were calculated using nonlinear regression analysis (GraphPad Prism 8.0). Data are presented as mean ± SD from three independent experiments, each performed in triplicate.

293T cells = experiment: Cytotoxicity assay (Cell Counting Kit-8) on 293T cells; type: cell-based; details: 1.5 to 400 μM, 48 h, compared with GSK4, GSK4-1, GSK4-2
Method: as §4

PbENT1L388M = molecular target: T6, PbENT1L388M (Plasmodium berghei, UniProt A0A509AYF4, L388M); experiment: ITC binding to PbENT1L388M
T6 construct: 10xHis (N); made in house; host or cells: Sf9 insect cells (baculovirus)
Method: as §1, with “The protein purification of the bacterial nucleoside transporter NupG was performed as described in previous studies ([35]).” left out
as §3

PfENT1S49C = molecular target: T7, PfENT1S49C (Plasmodium falciparum, UniProt Q8IDM6, S49C); experiment: ITC binding to PfENT1S49C
T7 construct: 10xHis (N); made in house; host or cells: Sf9 insect cells (baculovirus)
Method: as §1, with “The protein purification of the bacterial nucleoside transporter NupG was performed as described in previous studies ([35]).” left out
as §3

PbENT1C43S = molecular target: T8, PbENT1C43S (Plasmodium berghei, UniProt A0A509AYF4, C43S); experiment: ITC binding to PbENT1C43S
T8 construct: 10xHis (N); made in house; host or cells: Sf9 insect cells (baculovirus)
Method: as §1, §2

PfENT1 [3] = molecular target: T1, PfENT1; set-up: method as in PMID 36977719; details: competition assay; cited from earlier work

T1 sequence (Q8IDM6 whole entry): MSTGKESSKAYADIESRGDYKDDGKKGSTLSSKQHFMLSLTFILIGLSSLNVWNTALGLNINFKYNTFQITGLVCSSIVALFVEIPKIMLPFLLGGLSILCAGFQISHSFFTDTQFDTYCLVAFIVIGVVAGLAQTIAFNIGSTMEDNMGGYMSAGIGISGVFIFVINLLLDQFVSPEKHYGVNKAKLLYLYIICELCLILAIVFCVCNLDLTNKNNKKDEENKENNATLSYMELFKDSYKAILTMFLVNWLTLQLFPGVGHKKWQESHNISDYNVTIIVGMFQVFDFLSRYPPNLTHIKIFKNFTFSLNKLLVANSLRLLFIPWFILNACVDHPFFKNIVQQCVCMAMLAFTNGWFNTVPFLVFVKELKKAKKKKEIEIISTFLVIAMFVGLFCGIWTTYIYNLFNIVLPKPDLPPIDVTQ
T4 sequence (Q8IDM6 whole entry M389L): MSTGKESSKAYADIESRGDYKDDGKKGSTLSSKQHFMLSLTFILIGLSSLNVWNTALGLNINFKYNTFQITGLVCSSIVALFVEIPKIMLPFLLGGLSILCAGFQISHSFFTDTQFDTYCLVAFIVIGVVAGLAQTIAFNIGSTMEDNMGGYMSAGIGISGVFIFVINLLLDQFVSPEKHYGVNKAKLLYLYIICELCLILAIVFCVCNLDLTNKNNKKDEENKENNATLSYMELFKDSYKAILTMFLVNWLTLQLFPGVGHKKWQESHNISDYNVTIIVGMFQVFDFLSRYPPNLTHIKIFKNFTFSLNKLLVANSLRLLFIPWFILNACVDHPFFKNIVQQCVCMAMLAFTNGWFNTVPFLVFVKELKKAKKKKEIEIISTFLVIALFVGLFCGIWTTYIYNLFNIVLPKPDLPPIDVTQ
T6 sequence (A0A509AYF4 whole entry L388M): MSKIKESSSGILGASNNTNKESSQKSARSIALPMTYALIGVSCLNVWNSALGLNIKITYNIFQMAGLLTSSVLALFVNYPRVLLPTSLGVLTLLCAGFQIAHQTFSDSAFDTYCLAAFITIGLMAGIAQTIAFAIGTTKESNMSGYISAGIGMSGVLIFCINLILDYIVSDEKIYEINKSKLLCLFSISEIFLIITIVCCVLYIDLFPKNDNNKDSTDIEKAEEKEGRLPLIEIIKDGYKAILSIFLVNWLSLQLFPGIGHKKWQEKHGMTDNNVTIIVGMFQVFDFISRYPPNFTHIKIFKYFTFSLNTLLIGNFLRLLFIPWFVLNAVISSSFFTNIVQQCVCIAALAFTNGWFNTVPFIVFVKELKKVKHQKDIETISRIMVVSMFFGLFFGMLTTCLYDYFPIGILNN
T8 sequence (A0A509AYF4 whole entry C43S): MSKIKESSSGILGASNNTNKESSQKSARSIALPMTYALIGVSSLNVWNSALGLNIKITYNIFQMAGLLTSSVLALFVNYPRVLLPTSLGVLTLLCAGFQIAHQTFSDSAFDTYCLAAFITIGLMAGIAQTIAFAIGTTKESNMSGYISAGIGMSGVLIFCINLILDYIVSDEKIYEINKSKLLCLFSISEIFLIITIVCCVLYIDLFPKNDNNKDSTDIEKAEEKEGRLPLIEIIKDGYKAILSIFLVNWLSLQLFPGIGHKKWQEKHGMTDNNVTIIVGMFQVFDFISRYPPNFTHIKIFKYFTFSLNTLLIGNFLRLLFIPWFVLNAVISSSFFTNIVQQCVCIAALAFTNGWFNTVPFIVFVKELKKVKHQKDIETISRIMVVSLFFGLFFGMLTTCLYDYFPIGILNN
T7 sequence (Q8IDM6 whole entry S49C): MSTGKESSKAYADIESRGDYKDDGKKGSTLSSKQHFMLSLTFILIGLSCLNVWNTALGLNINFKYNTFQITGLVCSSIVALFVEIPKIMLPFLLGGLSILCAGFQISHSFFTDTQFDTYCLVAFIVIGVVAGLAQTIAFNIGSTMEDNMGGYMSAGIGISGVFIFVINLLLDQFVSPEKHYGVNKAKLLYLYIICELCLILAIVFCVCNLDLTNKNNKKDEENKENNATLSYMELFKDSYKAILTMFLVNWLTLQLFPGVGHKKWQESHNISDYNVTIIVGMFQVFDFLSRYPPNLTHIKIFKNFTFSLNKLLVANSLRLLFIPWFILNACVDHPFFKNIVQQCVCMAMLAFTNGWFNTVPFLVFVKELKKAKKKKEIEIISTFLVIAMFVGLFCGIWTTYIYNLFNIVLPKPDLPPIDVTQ

Cc1oc(-c2ccc(Cl)cc2)nc1C(=O)NCCN1CCCCCC1=O [GSK4-1]
decrease in binding affinity for PfENT1 (versus GSK4) (PfENT1 [1]): 3.5 fold

Cc1oc(-c2ccccc2Cl)nc1C(=O)NCCN1CCCCCC1=O [GSK4-2]
decrease in binding affinity for PfENT1 (versus GSK4) (PfENT1 [1]): 1.6 fold

O=C(NCCN1CCCCCC1=O)c1nc(-c2ccccc2)oc1C1CC1 [GSK4-3]
Kd (PfENT1 [1]; read-out: Kd (binding affinity for PfENT1)): 21.9 nM and 13.4 nM and 16.4 nM
binding affinity for PvENT1 (in words) (PvENT1): comparable binding
Kd (PvENT1): 57.2 nM and 37.6 nM and 30.8 nM
binding affinity for PbENT1 (in words) (PbENT1): negligible binding
increase in binding affinity for PfENT1M389L compared with parent compound GSK4 (PfENT1M389L): 6 fold
Kd (PfENT1M389L): 44.4 nM
binding to NupG (in words) [2]: cannot bind
cytotoxicity (in words) (HepG2 cells): lower cytotoxicity
cytotoxicity (in words) (293T cells): lower cytotoxicity

Cc1oc(-c2ccccc2)nc1C(=O)NCCN1CCCCCC1=O [GSK4]
Kd (PfENT1 [1]; Kd (binding affinity for PfENT1)): 38.1 nM and 51.9 nM and 48.1 nM
Kd (PvENT1): 54.3 nM and 37.2 nM and ~47.2 nM and 47.2 nM
Kd (PbENT1): 15400 nM and 4920 nM and 12600 nM
binding affinity of PfENT1M389L relative to PfENT1WT (PfENT1M389L): five times weaker
Kd (PfENT1M389L): 234 nM and 317 nM and 276 nM
binding affinity of PbENT1L388M relative to PbENT1WT (PbENT1L388M): five times greater
Kd (PbENT1L388M; Kd (binding to PbENT1L388M), 25 °C, pH 6.0): 2590 nM and 2090 nM and 2770 nM

Nc1ncnc2c1ncn2[C@@H]1O[C@H](CO)[C@@H](O)[C@H]1O [adenosine]
Kd (PbENT1): 38100 nM and 36600 nM and 40500 nM
thermodynamic pattern of binding to PfENT1S49C (PfENT1S49C): enthalpy-driven
binding to PbENT1C43S (in words) (PbENT1C43S): did not show detectable adenosine binding
inhibition of the inosine transport activity of PfENT1 (PfENT1 [3]): effectively inhibited

Nc1ccn([C@@H]2O[C@H](CO)[C@@H](O)[C@H]2O)c(=O)n1 [cytidine]
binding affinity for PbENT1 (in words) (PbENT1): No binding affinity was detected
